Measurements as given in US20230277591A1 (JULIUS-MAXIMILIANS-UNIVERSITÄT WÜRZBURG, priority 2017, published 2023).
“Also recorded” adds a separate entry of the source.

Assays:
[1] = tested on: MOLM-13 AML cells; assay: Flow cytometric analysis of surface expression (FLT3, CD33, CD123) after FLT3 inhibitor treatment, MOLM-13; assay type: cell-based, human; conditions: for time to decrease of FLT3 expression to baseline levels after withdrawal of drug: MOLM-13, midostaurin: baseline or slightly below baseline
Description: (§1) Cell surface expression of FLT3 (CD135) was analyzed using a conjugated mouse-anti-human-FLT3 mAb (clone 4G8, BD Pharmagin, BD Biosciences, Germany) and mouse IgG1 isotype control (BD Pharmagin). In brief, 1×10^6 cells were washed, resuspended in 100 µL PBS/0.5% fetal calf serum and stained with 5 µL of anti-FLT3 mAb or isotype for 30 minutes at 4° C.
A complete medium change was performed every 7 days, MOLM-13 cells adjusted to 1×10^6/mL medium and 2 mL of this cell suspension plated per well in […] (Costar, Corning, NJ). After 2-3 weeks of culture with 10 nM midostaurine, MOLM-13 cells were exposed to exponentially increasing concentration of midostaurine for next 8-10 weeks to reach 50 nM midostaurin.

[2] = tested on: MOLM-13 AML cells; assay: MOLM-13 xenograft model of AML in NSG mice; assay type: in vivo, mouse
Description: (§2) All experiments were approved by the Institutional Animal Care and Use Committees of the participating institutions. NOD.Cg-Prkdc^scid Il2rg^tm1Wjl/SzJ (NSG) mice (female, 6-8 week old) were purchased from Charles River or bred in-house. Mice were inoculated with 1×10^6 ffluc_GFP^+ MOLM-13 AML cells by tail vein injection on day 0, and received a single dose of 5×10^6 T cells (in 200 µL of PBS/0.5% FCS) by tail vein injection on day 7. Crenolanib [15 mg/kg; 200 µL of 30% glycerol formal (Sigma Aldrich, Munich, Germany)] was administered intraperitoneally (i.p.) Monday-Friday for 3 consecutive weeks. AML progression/regression was assessed by serial bioluminescence imaging following i.p. administration of D-luciferin substrate (0.3 mg/g body weight) (Biosynth, Staad, Switzerland) using an IVIS Lumina imaging system (Perkin Elmer, Waltham, Massachusetts). Data was analyzed using Living Image software (Perkin Elmer).
as §2, with “Crenolanib [15 mg/kg; 200 µL of 30% glycerol formal (Sigma Aldrich, Munich, Germany)] was administered intraperitoneally (i.p.) Monday-Friday for 3 consecutive weeks.” left out

[3] = tested on: FLT3 CAR-T cells
[4] = tested on: K562 erythro-myeloid leukemia; assay: Flow cytometric analysis of FLT3 expression after FLT3 inhibitor treatment, K562; assay type: cell-based, human; conditions: K562, wild-type FLT3
Description: as §1

[5] = tested on: MV4;11 AML cells; assay: Flow cytometric analysis of surface expression after FLT3 inhibitor treatment, MV4;11; assay type: cell-based, human
Description: as §1

[6] = tested on: JeKo-1 mantle cell lymphoma; assay: Flow cytometric analysis of FLT3 expression after FLT3 inhibitor treatment, JeKo-1; assay type: cell-based, human; conditions: JeKo-1, wild-type FLT3
Description: as §1

[7] = tested on: THP-1 AML cells; assay: Flow cytometric analysis of FLT3 expression after FLT3 inhibitor treatment, THP-1; assay type: cell-based, human; conditions: THP-1, wild-type FLT3
Description: as §1

[8] = tested on: MV4;11 AML cells; assay: Antibody-dependent cellular cytotoxicity (ADCC) assay; assay type: cell-based, human; conditions: mAb 5000 ng/mL, PBMC 50:1, 24 h
Description: MV4;11 cells were plated at a concentration of 1×10^6/mL in 1 mL per well in 24-well plates (Costar, Corning, NJ).
MV4;11 AML cells transduced with firefly luciferase (ffluc) were utilized for ADCC assays. MV4;11 AML cells were pre-treated with FLT3 inhibitors for 7 days or were left untreated. Target cells were co-incubated with healthy donor derived PBMCs at an effector-to-target ratio of 50:1 in triplicate wells of 96-well flat-bottom plates in the presence of solvent control, IgG1 isotype control (5000 ng/mL) or anti-FLT3 BV10 mAb (5000 ng/mL) (Biolegend, London, UK). ADCC was determined in a bioluminescence-based assay after 24 hours^40. Luciferin substrate was added to the co-culture and the decrease in luminescence signal was measured using a luminometer (Tecan, Männedorf, Switzerland). The percentage of viable cells was calculated using the following formula: % viability = bioluminescence signal in the presence of effector cells and BV10 mAb (with or without FLT3 inhibitor pre-treatment) × 100 / bioluminescence signal in the control condition.

[9] = 4G8 CAR (Example 1), crenolanib 15 mg/kg i.p.

CO[C@@H]1[C@H](N(C)C(=O)c2ccccc2)C[C@H]2O[C@]1(C)n1c3ccccc3c3c4c(c5c6ccccc6n2c5c31)C(=O)NC4 [midostaurin]
time to decrease of FLT3 expression to baseline levels after withdrawal of drug [1]: ≤ 2 days | mice with leukemia reduction (response rate) ([2]; BV10 CAR (Example 3), midostaurin experiment, BL day 7 to day 11, n=4 per group): 0% | MFI of FLT3 higher, mouse with lowest FLT3 expression vs mouse without drug ([2]; midostaurin 1 mg/kg i.p., bone marrow MOLM-13): 30% | effect of the drug per se on (viability and) function of FLT3 CAR-T cells [3]: not affected; also recorded: did not affect

CC1(COc2ccc3c(c2)ncn3-c2ccc3cccc(N4CCC(N)CC4)c3n2)COC1 [crenolanib]
FLT3 surface protein (MFI) compared to MOLM-13native ([1]; 10 nM midostaurin 2-3 weeks, 10 nM crenolanib 5 days, 1 nM quizartinib 5 days, p < 0.05): significantly higher levels | time to decrease of FLT3 expression to baseline levels after withdrawal of drug [1]: ≤ 2 days | FLT3 expression upon re-exposure to the drug ([1]; MOLM-13 after withdrawal): increased again | CD33 expression on MOLM-13 ([1]; inhibitor-treated vs native): not affected | CD123 expression on MOLM-13 ([1]; inhibitor-treated vs native): not affected | increase in FLT3 expression upon exposure [4]: did not occur | FLT3 expression upon exposure ([5]; MV4;11 (FLT3-ITD+/+)): increase | CD33 expression on MV4;11 ([5]; inhibitor-treated): not affected | CD123 expression on MV4;11 ([5]; inhibitor-treated): not affected | overall response rate ([2]; 4G8 CAR (Example 1), 5×10^6 T cells day 7, crenolanib 15 mg/kg i.p., n=8 per group): 0% | AML cells in peripheral blood, bone marrow and spleen at experiment endpoint [2, 9]: high degree of leukemia infiltration | antileukemia efficacy [2, 9]: only a minute antileukemia effect | FLT3 on MOLM-13 cells recovered from peripheral blood and bone marrow at experiment endpoint ([2]; crenolanib monotherapy 15 mg/kg i.p.): uniformly and strongly upregulated | effect of the drug per se on (viability and) function of FLT3 CAR-T cells [3]: not affected; also recorded: did not affect | increase in FLT3 expression upon exposure [6]: did not occur | increase in FLT3 expression upon exposure [7]: did not occur

B1: BV10 mAb: anti-FLT3 monoclonal antibody BV10 (Biolegend) used in ADCC assay (antibody, V domains shown)
VH: QVQLKQSGPGLVQPSQSLSITCTVSGFSLTNYGLHWVRQSPGKGLEWLGVIWSGGSTDYNAAFISRLSISKDNSKSQVFFKMNSLQADDTAIYYCARKGGIYYANHYYAMDYWGQGTSVTVSS
VL: DIVMTQSPSSLSVSAGEKVTMSCKSSQSLLNSGNQKNYMAWYQQKPGQPPKLLIYGASTRESGVPDRFTGSGSGTDFTLTISSVQAEDLAVYYCQNDHSYPLTFGAGTKLELKR
MV4;11 cells eliminated (ADCC) ([8]; crenolanib-treated MV4;11 (10 nM, 7 days)): 39% | MV4;11 cells eliminated (ADCC) ([8]; midostaurin-treated MV4;11 (50 nM, 7 days)): 26% | MV4;11 cells eliminated (ADCC) ([8]; quizartinib-treated MV4;11 (1 nM, 7 days)): 46% | MV4;11 cells eliminated (ADCC) ([8]; without FLT3 inhibitor pre-treatment): 13%
